Key:
E. coli ESS Kan^r [1] = experiment: Paper disc filter antibiotic assay (zone of inhibition); format: cell-based, Escherichia coli; conditions: paper disc
Experimental: Escherichia coli ESS Kan^r, is a kanamycin resistant strain of E. coli ESS, derived by transducing E. coli ESS with P1:TnV, Kan^r. This strain was used for the standard antibiotic assays.
LB Kan medium was solidified by 1.5% Bacto agar (Difco). For the antibiotic assay, Nutrient Broth agar plates were used. NB medium is 0.8% Nutrient Broth (Difco) containing 0.5% NaCl (Merck). NB was solidified by 1.8% Bacto agar (Difco). The NB plates were overlaid by 3.5 ml NB soft agar (0.9% Bacto agar) mixed with 0.1 ml E. coli ESS Kan^r overnight culture.
(§1) Antibiotic activity against E. coli ESS Kan^r was determined by the paper disc filter assay (Leo et al., 1945). Unknown quantities of antibiotic TA or Focusin, dissolved in ethanol, saline or NB were applied to paper disc filters (6 mm diameter; Schleicher and Schull). After allowing the ethanol to evaporate in the hood for about 15 mins, the dry filters were placed on nutrient broth plates which had been overlaid with an overnight culture of E. coli ESS Kan^r as described above.
(§2) The diameter of the zone of inhibition was recorded after 18 hours in incubation at 37° C. The concentration of the antibacterial agents were determined from a standard inhibition curve prepared with known quantities of TA and Focusin.

[2] = format: physicochemical
Experimental: Focusin and TA at concentrations of 3 mg/ml were diluted either in ethanol or in saline containing 1% ethanol to yield a final concentration in each case of 30 μg/ml. The solutions were mixed at 37° C. for one hour under shaking, and then were centrifuged at 5000 g for 10 minutes. Several samples were taken from the supernatants of the tubes and were applied on disc filters in order to determine the concentration of the antibacterial agents in the saline and ethanol solutions, by the paper disc bioassay method.

E. coli ESS Kan^r [3] = experiment: Sensitivity to combined exposure to light and air (remaining activity by paper disc bioassay); format: physicochemical, Escherichia coli
Experimental: as §1, §2
100 ng of TA and Focusin dissolved in ethanol were applied to paper filters and allowed to dry in a hood for 15 mins. The filters were then exposed to light from a fluorescent lamp in the hood; the distance from the lamp to the filters was approximately 40 cm. The controls were placed in the dark under a plastic box within the hood.
After exposure of the filters to the light for varying periods of time, the remaining activity of the agents was measured by the paper disc bioassay and the results are shown in the following Table 1: […]

E. coli ESS [4] = experiment: Antimicrobial spectrum, liquid media, viable cell count; format: cell-based, Escherichia coli; conditions: saturating concentrations
Experimental: (§3) Saturated solutions of TA and Focusin were prepared by adding 1.14 μg TA and 7 μg Focusin to 1 ml LB (final conc. of 1% ethanol). About 10^5 bacteria of various strains were then added. The control was bacteria in the same medium with no antibacterial agents. The bacteria were introduced at 37° C. with shaking at 100 rpm. When the control became turbid, viable cell count was performed on LB agar plates. Growth inhibition is presented as percentage of the no antibiotic control.

E. coli K-12 = experiment: as above; format: cell-based, Escherichia coli; conditions: saturating concentrations
Experimental: as §3

Bacillus subtilis = experiment: as above; format: cell-based; conditions: saturating concentrations
Experimental: as §3

Citrobacter diversus = experiment: as above; format: cell-based; conditions: saturating concentrations
Experimental: as §3

Enterobacter = experiment: as above; format: cell-based; conditions: saturating concentrations
Experimental: as §3

Erwinia herbicola = experiment: as above; format: cell-based; conditions: saturating concentrations
Experimental: as §3

Helicobacter pilori = experiment: as above; format: cell-based; conditions: saturating concentrations
Experimental: as §3

Klebsiella Gr47 = experiment: as above; format: cell-based; conditions: saturating concentrations; hospital strain
Experimental: as §3

Klebsiella pneumoniae = experiment: as above; format: cell-based; conditions: saturating concentrations; hospital strain
Experimental: as §3

Klebsiella sp = experiment: as above; format: cell-based; conditions: saturating concentrations; hospital strain
Experimental: as §3

Proteus vulgaris = experiment: as above; format: cell-based; conditions: saturating concentrations
Experimental: as §3

Providencia strautii = experiment: as above; format: cell-based; conditions: saturating concentrations
Experimental: as §3

Pseudomonas aeruginosa = experiment: as above; format: cell-based; conditions: saturating concentrations
Experimental: as §3

Salmonella thyphimurium = experiment: as above; format: cell-based; conditions: saturating concentrations
Experimental: as §3

Serratia marcescens = experiment: as above; format: cell-based; conditions: saturating concentrations
Experimental: as §3

Staphylococcus albus = experiment: as above; format: cell-based
Experimental: as §3

Staphylococcus aureas = experiment: as above; format: cell-based, Staphylococcus aureus; conditions: saturating concentrations
Experimental: as §3

Mycobacteria smegmatis = experiment: as above; format: cell-based, Mycobacterium smegmatis; conditions: saturating concentrations
Experimental: as §3

E. coli ESS [5] = experiment: Bactericidal effect when bound to mouse tissues; format: cell-based, Escherichia coli; conditions: 4 μg TA or 20 μg Focusin, 5 h
Experimental: Two mice were sacrificed by exposure to ether. The bladder, eyes, intestines, lungs, heart, teeth, liver, spleen and kidneys were removed by dissection. Each experimental set consisted of three test tubes. A piece of each tissue type was placed in each of the three test tubes. The amount of tissue per tube were as follows: bladder 1/3, eye 1/2, intestine 1 cm, lung 1/2, heart 1/3, fang tooth 1/2, liver 1/3, spleen 1/3 and kidney 1/2. One test tube contained a control tissue which was treated only with the solvent used for dissolving the antibacterial agent, usually 50% ethanol. The second and third test tubes contained tissues were treated with 4 μg TA or 20 μg Focusin, respectively.
Following application of the antibacterial agent or the control solution, the tissues were allowed to dry in a hood for 30 mins., and then placed in the test tubes.
One milliliter of sterile saline was then added to each test tube and the tubes were then incubated with shaking (50 rpm) at 37° C. for one hour. The amount of antibacterial agent that was released to the saline was measured following chloroform extraction by the disc filter assay.
The tissues were then transferred to exponentially growing cultures of E. coli ESS in NB at a concentration of 10^5 cells/ml. Incubation was at 37° C. and continued for 5 hours, following which the number of viable cells was checked.

[6] = tested on: Gram-positive and Gram-negative bacteria; conditions: literature; cited from earlier work
[7] = tested on: severe gingivitis and plaque; conditions: humans; cited from earlier work

## CCCC1OC(=O)C(C)CC(C)CCCCC(=O)CCCC(CC)C=CC=C(COC)CCC(O)C(O)CC(O)CNC1=O (stereo not drawn) [TA, reference compound]
E. coli ESS Kan^r [1]; zone 11 mm
  amount giving an inhibition zone of 11 mm: 64 ng
E. coli ESS Kan^r [1]; zone about 2 mm
  amount required to obtain a zone of inhibition of about 2 mm: 7.5 ng
[2]
  solubility in ethanol: completely soluble
[2]; saline with 1% ethanol, 1 h
  solubility in saline: about 1.14 μg/ml
E. coli ESS Kan^r [3]; 0 hours
  activity after exposure to light and air: 100%
E. coli ESS Kan^r [3]; 1 hour
  activity after exposure to light and air: 70%
E. coli ESS Kan^r [3]; 4 hours
  activity after exposure to light and air: 63%
E. coli ESS Kan^r [3]; 6 hours
  activity after exposure to light and air: 26%
E. coli ESS Kan^r [3]; 8 hours
  activity after exposure to light and air: 21%
E. coli ESS Kan^r [3]; 20 hours
  activity after exposure to light and air: 19%
E. coli ESS Kan^r [3]; after 20 hours
  degradation at combined exposure to light and air: 81%
E. coli ESS Kan^r [3]; after one hour, 60 min
  degradation at combined exposure to light and air: 30%
E. coli ESS [4]
  killing: 100%
E. coli K-12
  killing: 100%
Bacillus subtilis
  killing: 100%
Citrobacter diversus
  killing: 100%
Enterobacter
  killing: 100%
Erwinia herbicola
  killing: 100%
Helicobacter pilori
  killing: 100%
Klebsiella Gr47
  killing: 100%
Klebsiella pneumoniae
  killing: 100%
Klebsiella sp
  killing: 100%
Proteus vulgaris
  killing: 100%
Providencia strautii
  killing: 100%
Pseudomonas aeruginosa
  killing: 0%
Salmonella thyphimurium
  killing: 60%
Serratia marcescens
  killing: 100%
Staphylococcus albus; saturating concentrations
  incubation time after which the strain began to show sensitivity: > 46 h
Staphylococcus albus; saturating concentrations (TA)
  killing: 83%
Staphylococcus aureas
  killing: 100%
Mycobacteria smegmatis
  killing: 0%
E. coli ESS [5]; bladder
  Inhibition % by the treated tissue: 100%
E. coli ESS [5]; heart
  Inhibition % by the treated tissue: 100%
E. coli ESS [5]; intestine
  Inhibition % by the treated tissue: 99%
E. coli ESS [5]; kidney
  Inhibition % by the treated tissue: 100%
E. coli ESS [5]; liver
  Inhibition % by the treated tissue: 96%
E. coli ESS [5]; lungs
  Inhibition % by the treated tissue: 100%
E. coli ESS [5]; spleen
  Inhibition % by the treated tissue: 100%
E. coli ESS [5]; teeth
  Inhibition % by the treated tissue: 100%
[6]
  growth inhibition (in words): capable of inhibiting growth of a variety of Gram-positive and Gram-negative bacteria
  mode of growth inhibition (in words): lysis of growing bacteria as a result of blocking of cell wall synthesis
[7]
  effect on gingivitis and plaque (in words): to treat severe gingivitis and to reduce plaque in humans

From patent publication US5532231A, “Antibacterial agent” (priority 1994, dated 1996)
